Test: photoluminescence quantum yield (fraction); solvent given as SMILES

CC(=O)c1ccc2ccc3cccc4ccc1c2c34
photoluminescence quantum yield (in C1CCOC1): 0.002 | photoluminescence quantum yield (in CC#N): 0.002 | photoluminescence quantum yield (in CCCCCC): 0.002 | photoluminescence quantum yield (in CCO): 0.012 | photoluminescence quantum yield (in CN(C)C=O): 0.002 | photoluminescence quantum yield (in CO): 0.014 | photoluminescence quantum yield (in Cc1ccccc1): 0.003 | photoluminescence quantum yield (in ClCCl): 0.002

FC(F)(F)c1ccccc1B1c2ccccc2Nc2ccccc21
photoluminescence quantum yield (in ClCCl): 0.85

O=CC12N=N[C@](C=O)(C3C4CCC(C4)C31)C1[C@@H]3CC[C@@H](C3)[C@H]12 (stereo partly specified)
photoluminescence quantum yield (in CC#N): 0.049

N#Cc1ccc(-c2cn3cc(C#N)c[n+]3[n-]2)cc1
photoluminescence quantum yield (in ClCCl): 0.45

CCOC(=O)c1sc(-c2ccc(-c3cc(-c4ccc(C(C)(C)C)cc4)c(C(=O)OCC)s3)s2)cc1-c1ccc(C(C)(C)C)cc1
photoluminescence quantum yield (in ClCCl): 0.15

CC(=O)Nc1ccc2c3cccc4cccc(c5cccc1c52)c43
photoluminescence quantum yield (in C1COCCO1): 0.56 | photoluminescence quantum yield (in CC#N): 0.45 | photoluminescence quantum yield (in CCCCOCCCC): 0.46 | photoluminescence quantum yield (in CCOC(C)=O): 0.5

c1ccc2c(c1)c1ccc3cccc4c3c1c2c1c2cccc3ccc5c6ccccc6c(c5c32)c41
photoluminescence quantum yield (in ClCCl): 0.0031

CCCCN(CCCC)c1ccc2c(c1)C#CC#Cc1cc(C(F)(F)F)ccc1C#Cc1cc(c3cc1C#Cc1ccc(C(F)(F)F)cc1C#CC#Cc1cc(N(CCCC)CCCC)ccc1C#C3)C#C2
photoluminescence quantum yield (in ClCCl): 0.23

c1ccc(-n2c3c(c4c2-c2ccccc2C42c4ccccc4-c4ccccc42)C2(c4ccccc4-c4ccccc42)c2ccccc2-3)cc1
photoluminescence quantum yield (in C1CCOC1): 0.37

F[B-]1(F)Oc2ccccc2-c2cc(-n3c4ccccc4c4ccccc43)cc[n+]21
photoluminescence quantum yield (in O=P(c1ccccc1)(c1ccccc1)c1ccccc1Oc1ccccc1P(=O)(c1ccccc1)c1ccccc1): 0.99

COc1cc(OC)cc(C2=C3C(C)=C(I)C(/C=C/c4ccsc4)=[N+]3[B-](F)(F)n3c(/C=C/c4ccsc4)c(I)c(C)c32)c1
photoluminescence quantum yield (in C1CCOC1): 0.01 | photoluminescence quantum yield (in CS(C)=O): 0.01 | photoluminescence quantum yield (in ClCCl): 0.02

COC(=O)C12N=N[C@](C(=O)OC)(C3C4C=CC(C4)C31)[C@@H]1C[C@H]12 (stereo partly specified)
photoluminescence quantum yield (in CC#N): 0.034

CCCCC(CC)CN1C(=O)c2cccc3c(C#Cc4ccc(N(c5ccccc5)c5ccc(C#Cc6ccc7c8c(cccc68)C(=O)N(CC(CC)CCCC)C7=O)cc5)cc4)ccc(c23)C1=O (stereo unspecified)
photoluminescence quantum yield (in C1CCCCC1): 0.93 | photoluminescence quantum yield (in C1CCOC1): 0.85 | photoluminescence quantum yield (in CC#N): 0.012 | photoluminescence quantum yield (in Cc1ccccc1): 0.94 | photoluminescence quantum yield (in ClC(Cl)Cl): 0.44

N#Cc1nc2c(nc1C#N)C1c3ccc(N(c4ccccc4)c4ccccc4)cc3C2c2ccc(N(c3ccccc3)c3ccccc3)cc21
photoluminescence quantum yield (in C1CCCCC1): 0.55 | photoluminescence quantum yield (in CC#N): 0.001 | photoluminescence quantum yield (in Cc1ccccc1): 0.25 | photoluminescence quantum yield (in ClCCl): 0.002

C[Si]1(C)C2=CC(=[N+]3CCC3)C=C(F)C2=Nc2c(F)cc(N3CCC3)cc21
photoluminescence quantum yield (in CCO): 0.11

CN(C)CCNCc1c2ccccc2cc2ccccc12
photoluminescence quantum yield (in C1CCCCC1): 0.0769 | photoluminescence quantum yield (in C1CCOC1): 0.00216 | photoluminescence quantum yield (in CC#N): 0.00137 | photoluminescence quantum yield (in CC(C)=O): 0.0234 | photoluminescence quantum yield (in CCO): 0.0179 | photoluminescence quantum yield (in CN(C)C=O): 0.00064 | photoluminescence quantum yield (in CO): 0.0124 | photoluminescence quantum yield (in ClC(Cl)Cl): 0.0315

CNc1ncc2nc(C#N)n(Cc3ccccc3)c2n1
photoluminescence quantum yield (in C1COCCO1): 0.61 | photoluminescence quantum yield (in CC#N): 0.58 | photoluminescence quantum yield (in CO): 0.49 | photoluminescence quantum yield (in ClCCl): 0.58

COC(=O)c1ccc(O)c(-c2[nH]c(=O)n3c2-c2ccccc2C3=O)c1
photoluminescence quantum yield (in CC#N): 0.46 | photoluminescence quantum yield (in CO): 0.35 | photoluminescence quantum yield (in ClCCl): 0.86

CCCCCCCCCCCCSc1cc2c3c(ccc4c5c(SCCCCCCCCCCCC)cc6c7c(ccc(c1c34)c75)C(=O)N(C1CCCCC1)C6=O)C(=O)N(C1CCCCC1)C2=O
photoluminescence quantum yield (in ClC(Cl)Cl): 0.155

Cc1cc(C)c(B2c3cc(C(C)(C)C)cc4ccc5c6ccccc6c6cc(C(C)(C)C)cc2c6c5c34)c(C)c1
photoluminescence quantum yield (in C1CCCCC1): 0.72
